Laboratory results published in US20210347724A1, “METHOXYCHALCONE DERIVATIVES AND USES THEREOF” (The Board of Trustees of the Leland Stanford Junior …, priority 2020, published 2021).

Test: Pharmacokinetics study
Assay type: in vivo, Balb/c male mice
Settings: male, Balb/c, mouse, ip; 50 mg/kg i.p., plasma
Procedure: Pharmacokinetics study. Mass quantification analysis was carried out using an Agilent 6490 iFunnel triple quadrupole (QQQ) mass spectrometer equipped with an Agilent 1290 infinity II UHPLC. ZORBAX C18 (Eclipse Plus, 2.1×50 mm, 1.8 μm particle size) was used as analytical UHPLC column. The mobile phase was composed of 50% mixture of water (with 0.1% formic acid and 4 mM ammonium formate) and acetonitrile (0.1% formic acid). The flow rate of mobile phase was set at 0.5 mL/min and column temperature was adjusted at 30° C. The electrospray ionization source was operated in positive ion mode. […] For SU086-CD3 the [M+H]^+ ions were monitored at m/z 347.1 as the precursor ion and a fragment at m/z 198.1 as the product ion. […] Blood was collected retro-orbitally at 5, 15, 30, 60, 120, 360 and 720 minutes after injection in three mice per time point. Blood plasma was separated via centrifugation at 7,000 RPM for 10 minutes. Each plasma sample was mixed with SU086-CD3 internal standard. 10 μL of plasma was mixed with 190 μL MS-grade acetonitrile and vortexed 30 seconds followed by 5 minutes incubation at RT. Mixture was centrifuged at 11,000 RPM for 15 min at 4° C. and supernatant was collected and further cleaned by re-centrifugation. Each protein-free plasma fraction (n=3, from three independent mouse) was resolved using the HPLC/MS MRM method as described above.

A half-life of 1 h was found for `COc1cc(OC)c(C(=O)/C=C/c2cccc([N+](=O)[O-])c2)c(OC)c1` [SU086] in this work.
